How the values were obtained:
[1] = compound: C1CC(C1)(C(=O)[O-])C(=O)[O-].N.N.[Pt+2] [Carboplatin]; settings: max 10 µM
In short: (§1)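 After 24 hours at 37°C and 5% CO2 in 1536-well plates holding 7.5 μl of DMEM/F12 or RPMI with 10% FBS, cancer cell lines were dosed for 72 hours, with final DMSO typically 0.2%. Viability came from CellTiter-Glo 2.0 luminescence, scaled between the means of blank wells and DMSO wells. A non-linear mixed effects model fitted a two-parameter logistic curve to each dose response to give the single-agent IC50.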

[2] = compound: C1CN(CCC1(C(=O)N[C@@H](CCO)C2=CC=C(C=C2)Cl)N)C3=NC=NC4=C3C=CN4 [AZD5363]; settings: max 10 µM
In short: as §1

[3] = compound: C=CCn1c(=O)c2cnc(Nc3ccc(N4CCN(C)CC4)cc3)nc2n1-c1cccc(C(C)(C)O)n1 [AZD1775]; settings: max 3 µM
In short: as §1

[4] = compound: CC(=O)Nc1cccc(-n2c(=O)n(C3CC3)c(=O)c3c(Nc4ccc(I)cc4F)n(C)c(=O)c(C)c32)c1 [Trametinib]; settings: max 1 µM
In short: as §1

[5] = compound: CC(=O)O[C@H]1C(=O)[C@@]2(C)[C@H]([C@H](OC(=O)c3ccccc3)[C@]3(O)C[C@H](OC(=O)[C@H](O)[C@@H](NC(=O)c4ccccc4)c4ccccc4)C(C)=C1C3(C)C)[C@]1(OC(C)=O)CO[C@@H]1C[C@@H]2O [Paclitaxel]; settings: max 3 µM
In short: as §1

[6] = compound: CC(=O)c1c(C)c2cnc(Nc3ccc(N4CCNCC4)cn3)nc2n(C2CCCC2)c1=O [Palbociclib]; settings: max 10 µM
In short: as §1

[7] = compound: CC(C)n1c(=O)n(C)c2cnc3cc(F)c(-c4ccc(OCCCN5CCCCC5)nc4)cc3c21 [AZD1390]; settings: max 0.3 µM
In short: as §1

[8] = compound: CC1(C)CCC(CN2CCN(c3ccc(C(=O)NS(=O)(=O)c4ccc(NCC5CCOCC5)c([N+](=O)[O-])c4)c(Oc4cnc5[nH]ccc5c4)c3)CC2)=C(c2ccc(Cl)cc2)C1 [Venetoclax]; settings: max 1 µM
In short: as §1

[9] = compound: CC1=C(C(=CC=C1)Cl)NC(=O)C2=CN=C(S2)NC3=CC(=NC(=N3)C)N4CCN(CC4)CCO [Dasatinib]; settings: max 2 µM
In short: as §1

[10] = compound: CC1=CN2[C@@H](C1)C=NC3=CC(=C(C=C3C2=O)OC)OCCCCCOC4=C(C=C5C(=C4)N=C[C@@H]6CC(=CN6C5=O)C)OC [SG3199]; settings: max 0.001 µM
In short: as §1

[11] = compound: CCN(CCO)CCCOc1ccc2c(Nc3cc(CC(=O)Nc4cccc(F)c4)[nH]n3)ncnc2c1 [AZD2811]; settings: max 1 µM
In short: as §1

[12] = compound: CCc1c2c(nc3ccc(O)cc13)-c1cc3c(c(=O)n1C2)COC(=O)[C@]3(O)CC [SN-38]; settings: max 0.3 µM
In short: as §1

[13] = compound: CN(C)CCCOc1ccc(-c2ccc3ncc4c(c3c2)n(C2CCOCC2)c(=O)n4C)cn1 [AZD0156]; settings: max 3 µM
In short: as §1

[14] = compound: CN(CC[C@H](CSC1=CC=CC=C1)NC2=C(C=C(C=C2)S(=O)(=O)NC(=O)C3=CC=C(C=C3)N4CCC(CC4)[C@H](C5=CC=CC=C5C6=CC=C(C=C6)Cl)O)S(=O)(=O)C(F)(F)F)CCO [AZD4320]; settings: max 1 µM
In short: as §1

[15] = compound: COc1cc(Nc2ncc3c(n2)-c2ccc(Cl)cc2C(c2c(F)cccc2OC)=NC3)ccc1C(=O)O [Alisertib]; settings: max 10 µM
In short: as §1

[16] = compound: COc1cc([C@@H]2c3cc4c(cc3[C@@H](O[C@@H]3O[C@@H]5CO[C@@H](C)O[C@H]5[C@H](O)[C@H]3O)[C@H]3COC(=O)[C@H]23)OCO4)cc(OC)c1O [Etoposide]; settings: max 10 µM
In short: as §1

[17] = compound: COc1cc2ncnc(Nc3ccc(F)c(Cl)c3)c2cc1OCCCN1CCOCC1 [Gefitinib]; settings: max 10 µM
In short: as §1

[18] = compound: COc1cccc(OCCCN)c1-c1cc(Nc2cnc(C#N)cn2)n[nH]1 [Prexasertib]; settings: max 1 µM
In short: as §1

[19] = compound: COc1cccc2c1C(=O)c1c(O)c3c(c(O)c1C2=O)C[C@@](O)(C(=O)CO)C[C@@H]3O[C@H]1C[C@H](N)[C@H](O)[C@H](C)O1 [Doxorubicin]; settings: max 1 µM
In short: as §1

[20] = compound: COc1nnc2ccc(N3CCC(c4ccc(OCCN5CCN(C)C(=O)[C@H]5C)cc4)CC3)nn12 [AZD5153]; settings: max 1 µM
In short: as §1

[21] = compound: CS(=O)(=O)CCNCc1ccc(-c2ccc3ncnc(Nc4ccc(OCc5cccc(F)c5)c(Cl)c4)c3c2)o1 [Lapatinib]; settings: max 10 µM
In short: as §1

[22] = compound: C[C@@H](Nc1cc(F)cc(F)c1)c1cc(C(=O)N(C)C)cc2c(=O)cc(N3CCOCC3)oc12 [AZD8186]; settings: max 10 µM
In short: as §1

[23] = compound: C[C@@H](Oc1cc(-c2cnn(C3CCNCC3)c2)cnc1N)c1c(Cl)ccc(F)c1Cl [Crizotinib]; settings: max 10 µM
In short: as §1

[24] = compound: C[C@@H](c1ccc2nccn2c1)n1nnc2ncc(-c3cnn(C)c3)nc21 [Savolitinib]; settings: max 1 µM
In short: as §1

[25] = compound: C[C@@H]1COCCN1C2=NC(=NC(=C2)C3(CC3)[S@](=N)(=O)C)C4=C5C=CNC5=NC=C4 [AZD6738]; settings: max 10 µM
In short: as §1

[26] = compound: Cc1c2c(nn1C)CSCc1cc(n(C)n1)CSc1cc(c3ccccc3c1)OCCCc1c(C(=O)O)n(C)c3c-2c(Cl)ccc13 [AZD5991]; settings: max 1 µM
In short: as §1

[27] = compound: Cc1cc2ncnn2cc1Nc1ncc2c(n1)n(C1CCOCC1)c(=O)n2C [AZD7648]; settings: max 10 µM
In short: as §1

[28] = compound: Cc1nc(-c2cn3c(n2)-c2ccc(-c4cnn(C(C)(C)C(N)=O)c4)cc2OCC3)n(C(C)C)n1 [Taselisib]; settings: max 10 µM
In short: as §1

[29] = compound: Cn1cnc2c(F)c(Nc3ccc(Br)cc3Cl)c(C(=O)NOCCO)cc21 [Selumetinib]; settings: max 10 µM
In short: as §1

[30] = compound: N#Cc1cnc(Nc2cc(NC[C@H]3CNCCO3)c(C(F)(F)F)cn2)cn1 [SRA737]; settings: max 10 µM
In short: as §1

[31] = compound: NC1(c2ccc(-c3nc4ccn5c(=O)[nH]nc5c4cc3-c3ccccc3)cc2)CCC1 [MK-2206]; settings: max 10 µM
In short: as §1

[32] = compound: Nc1ccn([C@@H]2O[C@H](CO)[C@@H](O)C2(F)F)c(=O)n1 [Gemcitabine]; settings: max 0.3 µM
In short: as §1

[33] = compound: O=C(Nc1ccc2[nH]nc(-c3ccncc3)c2c1)[C@@H]1CCN(CC(=O)N2CCN(c3ccc(-c4ncccn4)cc3)CC2)C1; settings: max 5 µM
In short: as §1

[34] = compound: O=C(c1cc(Cc2n[nH]c(=O)c3ccccc23)ccc1F)N1CCN(C(=O)C2CC2)CC1 [Olaparib]; settings: max 10 µM
In short: as §1

[35] = compound: O=c1[nH]cc(F)c(=O)[nH]1 [5-Fluorouracil]; settings: max 20 µM
In short: as §1

Row | Cell Line | IC50, cell viability 72 h [1] [nM] | IC50, cell viability 72 h [2] [nM] | IC50, cell viability 72 h [3] [nM] | IC50, cell viability 72 h [4] [nM] | IC50, cell viability 72 h [5] [nM] | IC50, cell viability 72 h [6] [nM] | IC50, cell viability 72 h [7] [nM] | IC50, cell viability 72 h [8] [nM] | IC50, cell viability 72 h [9] [nM] | IC50, cell viability 72 h [10] [nM] | IC50, cell viability 72 h [11] [nM] | IC50, cell viability 72 h [12] [nM] | IC50, cell viability 72 h [13] [nM] | IC50, cell viability 72 h [14] [nM] | IC50, cell viability 72 h [15] [nM] | IC50, cell viability 72 h [16] [nM] | IC50, cell viability 72 h [17] [nM] | IC50, cell viability 72 h [18] [nM] | IC50, cell viability 72 h [19] [nM] | IC50, cell viability 72 h [20] [nM] | IC50, cell viability 72 h [21] [nM] | IC50, cell viability 72 h [22] [nM] | IC50, cell viability 72 h [23] [nM] | IC50, cell viability 72 h [24] [nM] | IC50, cell viability 72 h [25] [nM] | IC50, cell viability 72 h [26] [nM] | IC50, cell viability 72 h [27] [nM] | IC50, cell viability 72 h [28] [nM] | IC50, cell viability 72 h [29] [nM] | IC50, cell viability 72 h [30] [nM] | IC50, cell viability 72 h [31] [nM] | IC50, cell viability 72 h [32] [nM] | IC50, cell viability 72 h [33] [nM] | IC50, cell viability 72 h [34] [nM] | IC50, cell viability 72 h [35] [nM]
1 | PC-14 (Lung Adenocarcinoma) | > 10000 | > 10000 | 407 | 453 | 8.94 | > 10000 | > 300 | > 1000 | 129 | > 1 | > 1000 | 104 | > 3000 | > 1000 | 2960 | > 10000 | 127 | 25.4 | > 1000 | > 1000 | 1700 | > 10000 | 6020 | > 1000 | 2680 | > 1000 | > 10000 | 4700 | > 10000 | 3330 | > 10000 | 56.2 | > 5000 | > 10000 | > 20000
2 | RMG-I (Ovarian Carcinoma) | > 10000 | > 10000 | > 3000 | > 1000 | > 3000 | > 10000 | > 300 | > 1000 | > 2000 | > 1 | > 1000 | > 300 | > 3000 | 593 | > 10000 | > 10000 | > 10000 | 301 | > 1000 | 647 | > 10000 | > 10000 | > 10000 | > 1000 | > 10000 | > 1000 | > 10000 | 8320 | > 10000 | > 10000 | > 10000 | > 300 | > 5000 | > 10000 | > 20000
3 | PANC-02-03 (Pancreatic Carcinoma) | > 10000 | > 10000 | 1790 | 259 | 1670 | > 10000 | > 300 | > 1000 | > 2000 | > 1 | > 1000 | 137 | > 3000 | > 1000 | > 10000 | > 10000 | > 10000 | 405 | > 1000 | 494 | > 10000 | > 10000 | > 10000 | > 1000 | > 10000 | > 1000 | > 10000 | > 10000 | > 10000 | > 10000 | > 10000 | > 300 | 2930 | > 10000 | > 20000
4 | NCI-H1755 (Lung Adenocarcinoma) | > 10000 | > 10000 | 363 | 444 | 58.2 | 9000 | > 300 | > 1000 | 211 | > 1 | > 1000 | > 300 | > 3000 | > 1000 | 3910 | > 10000 | > 10000 | 10.8 | > 1000 | > 1000 | > 10000 | > 10000 | 3970 | > 1000 | 2080 | > 1000 | > 10000 | 2410 | > 10000 | 2300 | > 10000 | > 300 | 1950 | > 10000 | > 20000
5 | Becker (Low Grade Glioma) | > 10000 | > 10000 | > 3000 | > 1000 | 6.48 | > 10000 | > 300 | > 1000 | > 2000 | > 1 | > 1000 | 28.5 | > 3000 | > 1000 | > 10000 | > 10000 | > 10000 | 94.1 | > 1000 | > 1000 | > 10000 | 3900 | > 10000 | > 1000 | > 10000 | > 1000 | > 10000 | 3430 | > 10000 | > 10000 | > 10000 | > 300 | > 5000 | > 10000 | > 20000
